The subject of data set [1] is glycemia. As to the kind of experiment: Hyperglycemia-producing activity, tests in rats (glycemia). The data set is classed as in vivo, rat (adult white rats). The method, then: The following test methods were used to determine the hyperglycemia-producing activity:
The experiments were conducted in adult white rats weighing 200 g+ 10 g.
The products were administered as a suspension in gummy julep, by stomach tube, at dosages of 10, 20 and 100 mg/kg, p.o.
At each dosage level, and in each case, lots of 10 test animals (5 male and 5 female) and of 10 reference animals (5 male and 5 female, administered only the gummy Julep) were used.
Blood samples were taken by cardiac puncture, at times 15, 60 minutes and 2, 4 and 24 hours after administration of the products, and the glycemia was determined.

The subject of data set [2] is glycemia. The experiment in a line: Hyperglycemia-producing activity, tests in dogs (glycemia). The class given is in vivo, dog. The settings on record: p.o.
Data set [3] is described as follows: Acute toxicity (LD50 /24 hours). Conditions: in vivo, po.
Data set [4] deals with cardiovascular parameters. The experiment in a line: Cardiovascular parameters (blood pressures, cardiac rhythm) in anesthetized dogs. The data set is classed as in vivo, dog. The settings on record: 100 mg/kg, p.o.

Regarding `O=S1(=O)NC=Nc2cc(C(F)(F)F)c(F)cc21` [Example 1, 6-trifluoromethyl-7-fluoro-2H-1,2,4-benzothiadiazine-1,1-dioxide], the glycemia after administration in the data set on glycemia [1] (100 mg/kg p.o., twenty-four hours after administration, from 0.839± 0.042 g/l) came out at 1.212 ± 0.041 g/L. For the same compound, in the data set on glycemia [1] (10 or 20 mg/kg, p.o.), the “action on the glycemia” value is on record as “no significant action”. The “increase of the glycemia” value in the data set on glycemia [2] (100 mg/kg) is reported as “about 25%”. Also, the “action on the glycemia” value with glycemia [2] (10 or 20 mg/kg) is “no significant action”. The LD50 at 24 h in data set [3] was determined as 3230 mg/kg. In data set [4], the “action on the cardiac rhythm” value is listed as “nor on the cardiac rhythm”, the “action on the diastolic pressure” value is given as “no significant action”, the “action on the differential pressure” value is “no significant action” and the “action on the mean pressure” value is “no significant action”. Further, the “action on the systolic pressure” value in data set [4] was “no significant action”.
